In ChEMBL document CHEMBL3108691, “Structural investigation of cycloheptathiophene-3-carboxamide derivatives targeting influenza virus polymerase assembly” (J Med Chem, 2013):

What was measured:
[1] = tested on: Influenza A virus; assay type: functional, organism-based; settings: A/Puerto Rico/8/1934(H1N1), MDCK, 48 h
[2] = Cytotoxicity against MDCK cells assessed as cell viability after 48 hrs by MTT assay; assay type: cell-based, Canis lupus familiaris; settings: dog
[3] = molecular target: PA/PB1 (Influenza A virus (A/Puerto Rico/8/1934(H1N1)), UniProt P03431+P03433); assay: Inhibition of Influenza A virus (A/Puerto Rico/8/34(H1N1)) His6-tagged PA (239 to 716) interaction with GST-tagged PB1 (1 to 25) expressed in Escherichia coli BL21 (DE3) by ELISA
[4] = Cytotoxicity against HEK293 cells assessed as cell viability after 24 hrs by MTT assay; assay type: cell-based; settings: human
[5] = tested on: Influenza A virus; assay type: functional, organism-based; settings: A/Puerto Rico/8/1934(H1N1), MDCK, 12 h
[6] = cells; settings: Influenza A virus, HEK293, 24 h
[7] = tested on: Influenza A virus; assay type: functional, organism-based, Influenza A virus (A/Wisconsin/67/2005(H3N2)); settings: MDCK, 48 h
[8] = tested on: Influenza A virus; assay type: functional, organism-based; settings: A/Padova/30/2011(H1N1), MDCK, 48 h
[9] = tested on: Influenza A virus; assay type: functional, organism-based; settings: A/Padova/72/2011(H1N1), MDCK, 48 h
[10] = tested on: Influenza A virus; assay type: functional, organism-based; settings: A/Padova/253/2011(H1N1), MDCK, 48 h
[11] = tested on: Influenza B virus; assay: microbe, parasite or virus in culture; settings: B/Lee/1940, MDCK, 48 h

SMILES | EC50 [1] | CC50 at 48 h [2] | IC50 [3] | CC50 at 24 h [4] | also measured
CCOC(=O)c1c(NC(=O)c2ccccc2Cl)sc2c1CCCCC2 | 94 µM | > 250 µM | > 200 µM | > 250 µM | 
O=C(Nc1sc2c(c1C(=O)Nc1ccccn1)CCCCC2)c1ccccc1Cl |  |  | 134 µM |  | 
O=C(Nc1sc2c(c1C(=O)O)CCCCC2)c1ccccc1F | 76 µM | > 250 µM | 200 µM | > 250 µM | 
O=C(CCc1ccccc1)Nc1sc2c(c1C(=O)Nc1ccccn1)CCCCC2 |  |  | > 200 µM |  | 
O=C(Nc1sc2c(c1C(=O)Nc1ccccn1)CCCCC2)c1ccc(F)cc1Cl |  |  | > 200 µM |  | 
O=C(Cc1ccc(F)cc1)Nc1sc2c(c1C(=O)Nc1ccccn1)CCCCC2 | 16 µM | > 250 µM | > 200 µM | 250 µM | 
NC(=O)c1c(NC(=O)c2ccccc2F)sc2c1CCCCC2 |  |  | > 200 µM |  | 
O=C(Nc1sc2c(c1C(=O)O)CCCCC2)c1ccc(Cl)cc1 |  |  | > 200 µM |  | 
Nc1sc2c(c1C(=O)Nc1ccccn1)CCCCC2 |  |  | 35 µM |  | 
CCOC(=O)c1c(NC(=O)c2ccccc2F)sc2c1CCC2 | > 100 µM | > 250 µM | > 200 µM | > 250 µM | 
O=C(Nc1sc2c(c1C(=O)Nc1ccccn1)CCCCC2)c1ccc(Cl)cc1 |  |  | 32 µM |  | 
O=C(Cc1ccc2ncccc2c1)Nc1sc2c(c1C(=O)Nc1ccccn1)CCCCC2 | 58 µM | > 250 µM | 48 µM | > 250 µM | 
O=C(Nc1sc2c(c1C(=O)Nc1ccccn1)CCC2)c1ccccc1F |  |  | > 200 µM |  | 
O=C(CCc1ccc(F)cc1)Nc1sc2c(c1C(=O)Nc1ccccn1)CCCCC2 |  |  | > 200 µM |  | 
O=C(Nc1sc2c(c1C(=O)Nc1ccccn1)CCCCC2)c1ccccc1 |  |  | 87 µM |  | 
CCOC(=O)c1c(NC(=O)c2ccccc2F)sc2c1CCCCC2 | 78 µM | > 250 µM | 200 µM | > 250 µM | 
CSCC[C@H](N)C(=O)N[C@@H](CC(=O)O)C(=O)N[C@H](C(=O)N[C@@H](CC(N)=O)C(=O)N1CCC[C@H]1C(=O)N[C@H](C(=O)N[C@@H](CC(C)C)C(=O)N[C@@H](CC(C)C)C(=O)N[C@@H](Cc1ccccc1)C(=O)N[C@@H](CC(C)C)C(=O)N[C@@H](CCCCN)C(=O)N[C@H](C(=O)N1CCC[C@H]1C(=O)N[C@@H](C)C(=O)N[C@@H](CCC(N)=O)C(=O)O)C(C)C)[C@@H](C)O)C(C)C | 40 µM | > 100 µM | 35 µM | > 100 µM | 
O=C(Nc1sc2c(c1C(=O)O)CCCCC2)c1ccccc1Cl |  |  | > 200 µM |  | 
O=C(Cc1ccccc1)Nc1sc2c(c1C(=O)Nc1ccccn1)CCCCC2 | 19 µM | > 250 µM | > 200 µM | 220 µM | 

SMILES | EC50 [1] | CC50 at 48 h [2] | IC50 [3] | CC50 at 24 h [4] | also measured
O=C(Nc1sc2c(c1C(=O)Nc1ccccn1)CCCCC2)c1ccc(Cl)cc1Cl |  |  | > 200 µM |  | 
CCOC(=O)c1c(NC(=O)c2ccc(F)cc2)sc2c1CCCCC2 | 91 µM | > 250 µM | > 200 µM | > 250 µM | 
O=C(Nc1sc2c(c1C(=O)O)CCCCC2)c1ccc(F)cc1 |  |  | > 200 µM |  | 
O=C(Nc1ccccn1)c1c(NC(=O)C2CCCCC2)sc2c1CCCCC2 |  |  | > 200 µM |  | 
O=C(CCc1ccc(Cl)cc1)Nc1sc2c(c1C(=O)Nc1ccccn1)CCCCC2 |  |  | > 200 µM |  | 
CCOC(=O)c1c(NC(=O)c2ccc(OC)cc2)sc2c1CCCCC2 | 95 µM | > 250 µM | > 200 µM | > 250 µM | 
COc1ccc(C(=O)Nc2sc3c(c2C(=O)O)CCCCC3)cc1 |  |  | > 200 µM |  | 
O=C(CC1CCCCC1)Nc1sc2c(c1C(=O)Nc1ccccn1)CCCCC2 |  |  | > 200 µM |  | 
O=C(Nc1sc2c(c1C(=O)O)CCC2)c1ccccc1F | 77 µM | > 250 µM | 159 µM | > 250 µM | 
NC(=O)c1c(NC(=O)c2ccccc2F)sc2c1CCCC2 | > 100 µM | 118 µM | > 200 µM | 31 µM | 
O=C(Nc1sc2c(c1C(=O)Nc1ccccn1)CCCCC2)c1ccc(F)cc1 |  |  | 99 µM |  | 
O=C(Nc1sc2c(c1C(=O)Nc1ccccn1)CCCC2)c1ccccc1F |  |  | > 200 µM |  | 
COc1c(CC(=O)Nc2sc3c(c2C(=O)Nc2ccccn2)CCCCC3)sc2ccccc12 | 61 µM | > 250 µM | 90 µM | > 250 µM | EC50 [5]: 6 µM; EC50 [6]: > 100 µM
NC(=O)c1c(NC(=O)c2ccccc2F)sc2c1CCC2 |  |  | > 200 µM |  | 
NC(=O)c1ncn([C@@H]2O[C@H](CO)[C@@H](O)[C@H]2O)n1 [RIBAVIRIN] | 8 µM | > 250 µM |  | > 250 µM | EC50 [7]: 12 µM; EC50 [8]: 7 µM; EC50 [9]: 6 µM; EC50 [10]: 11 µM; EC50 [5]: 2 µM; EC50 [6]: 15 µM; EC50 [11]: 6 µM
O=C(Nc1sc2c(c1C(=O)Nc1ccccn1)CCCCC2)c1cccc(F)c1 |  |  | > 200 µM |  | 
CCOC(=O)c1c(NC(=O)c2ccc(Cl)cc2)sc2c1CCCCC2 | 89 µM | > 250 µM | > 200 µM | > 250 µM | 
O=C(Cc1ccc(Cl)cc1)Nc1sc2c(c1C(=O)Nc1ccccn1)CCCCC2 | 19 µM | > 250 µM | > 200 µM | > 250 µM | 
